Where “and” joins values, the source holds several entries; their conditions need not be identical. Equal entries are not always repeated.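 Five compound concentrations were applied to cells in 96-well plates for 48 hours; endpoints were derived by simple linear interpolation of the resulting dose-response curve. GI50 is the concentration that inhibits growth by half. At the TGI there is no net growth.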
Assays:
Test in all cases: inhibition of tumour cell growth, NCI panel, 48 h
[1] = test system: LOX IMVI melanoma
[2] = test system: UACC-257 melanoma
[3] = test system: SK-MEL-28 melanoma
[4] = test system: OVCAR-5 ovarian
[5] = test system: OVCAR-3 ovarian
[6] = test system: NCI-H522 lung
[7] = test system: BT-549 breast
[8] = test system: MALME-3M melanoma
[9] = test system: SR leukemia
[10] = test system: SNB-75 CNS

| Compound | GI50 [1] | TGI [1] | GI50 [2] | TGI [2] | GI50 [3] | TGI [3] | GI50 [4] | TGI [4] | GI50 [5] | TGI [5] | GI50 [6] | TGI [6] | GI50 [7] | TGI [7] | GI50 [8] | TGI [8] | GI50 [9] | GI50 [10] | TGI [10] | TGI [9] |
| --- | --- | --- | --- | --- | --- | --- | --- | --- | --- | --- | --- | --- | --- | --- | --- | --- | --- | --- | --- | --- |
| CCC(=O)Nc1ccccc1C#C/C=C\C#Cc1ccccc1C(F)(F)F | 5.14 µM | > 50 µM | 7.17 µM | > 45.2 µM | 3.65 µM | > 50 µM | 3.2 µM | > 37 µM | 2.4 µM | 11.2 µM | 1.33 µM | 6.09 µM | 2.21 µM | 32.5 µM | 7.54 µM | > 50 µM | 0.386 µM | 0.884 µM | 5.85 µM | – |
| Cc1cc(C(=O)NC(CCC(=O)O)C(=O)O)sc1CCC1CNc2nc(N)[nH]c(=O)c2C1 (stereo unspecified) | 0.0294 µM and 0.0365 µM | > 100 µM | 0.0722 µM and 0.228 µM | > 100 µM | 0.0435 µM and 0.0643 µM | > 100 µM | 0.0383 µM and 0.0723 µM | > 100 µM | 0.0523 µM and 0.487 µM | > 100 µM | < 0.0226 µM and 0.0546 µM | > 100 µM | 0.37 µM and 2.39 µM | > 100 µM | – | > 100 µM | < 0.0156 µM and 0.0263 µM | – | > 100 µM | > 100 µM |
| COc1cc(N2CCN(C(C)C)CC2)ccc1Nc1nc(Nc2cccc(F)c2C(=O)O)c2cc[nH]c2n1 | > 25 µM | > 25 µM | > 25 µM | > 25 µM | > 25 µM | > 25 µM | > 25 µM | > 25 µM | > 25 µM | > 25 µM | > 25 µM | > 25 µM | > 25 µM | > 25 µM | > 25 µM | > 25 µM | > 25 µM | > 25 µM | > 25 µM | > 25 µM |
| C[C@]1(Cn2ccnn2)C(C(=O)O)N2C(=O)CC2S1(=O)=O (stereo partly specified) | – | – | > 100 µM | > 100 µM | > 100 µM | > 100 µM | > 100 µM | > 100 µM | > 100 µM | > 100 µM | > 100 µM | > 100 µM | > 100 µM | > 100 µM | > 100 µM | > 100 µM | > 100 µM | > 100 µM | > 100 µM | > 100 µM |
| COc1c(-c2ccc(O)c(O)c2)oc2c(O)c(O)cc(O)c2c1=O | – | 29.4 µM | – | > 100 µM | – | > 100 µM | – | > 100 µM | – | > 100 µM | – | > 100 µM | – | > 100 µM | – | > 100 µM | – | – | – | 50.8 µM |
| C=C(CC(=O)O)C(=O)O (tested in a mixture with another compound) | > 50 µg/mL | > 50 µg/mL | > 50 µg/mL | > 50 µg/mL | > 50 µg/mL | > 50 µg/mL | > 50 µg/mL | > 50 µg/mL | > 50 µg/mL | > 50 µg/mL | > 50 µg/mL | > 50 µg/mL | > 50 µg/mL | > 50 µg/mL | > 50 µg/mL | > 50 µg/mL | > 50 µg/mL | – | – | > 50 µg/mL |
| c1cncc(C2Nc3cccc4cccc(c34)N2)c1 | 21.7 µM | 57.6 µM | – | – | 64 µM | > 100 µM | 88.7 µM | > 100 µM | 17.8 µM | 37.1 µM | 14.6 µM | 35.1 µM | 29.5 µM | 95 µM | 25.6 µM | 57.7 µM | 27.5 µM | 17.9 µM | > 100 µM | > 100 µM |
| OCCNCCCOc1ccc2ncnc(Nc3ccc(Oc4cccc(C(F)(F)F)c4)c(Cl)c3)c2c1 | 1.71 µM | 3.15 µM | – | – | 1.75 µM | 3.21 µM | 1.65 µM | 3.24 µM | 1.5 µM | 2.92 µM | – | – | 1.82 µM | 4.25 µM | 1.66 µM | 3.24 µM | 1.62 µM | 1.48 µM | 2.86 µM | 4.65 µM |
| C[n+]1c(-c2ccc(/C=N/NC(=O)c3ccc(C(=O)N/N=C/c4ccc(-c5cn6ccccc6[n+]5C)cc4)cc3)cc2)cn2ccccc21 | 846 µM | > 1000 µM | 182 µM | 97.5 µM and 322 µM | 258 µM | 406 µM | > 1000 µM | > 1000 µM | > 1000 µM | > 1000 µM | 186 µM | 326 µM | 874 µM | > 1000 µM | 208 µM | > 85.6 µM and 422 µM | – | – | – | 218 µM |
| Cc1ccn2c(CCc3nnc4cc(C)ccn34)nnc2c1 | – | – | – | > 100 µM | – | > 100 µM | – | > 100 µM | – | > 100 µM | – | > 100 µM | – | > 100 µM | – | > 100 µM | – | – | > 100 µM | > 100 µM |
| Cc1cc(N2CCCC2)nc(NCc2cc(Nc3ccnc4cc(Cl)ccc34)ccc2F)n1 | 1.12 µM | 2.48 µM | 1.31 µM | 2.66 µM | 1.78 µM | 3.48 µM | – | – | 1.57 µM | 3.06 µM | 1.41 µM | 3.09 µM | 1.54 µM | 3.3 µM | – | – | 0.243 µM | – | – | – |
| Cc1ccc(C2=C(c3ccccc3)C(c3ccccc3)Oc3ccc(C)cc32)cc1 (stereo unspecified) | 13.8 µM | 32 µM | 9.2 µM | 23.7 µM | – | – | 2.87 µM | 8.64 µM | 12.4 µM | 32.7 µM | 2.28 µM | 5.63 µM | 4.76 µM | 20.4 µM | 23.1 µM | 48.3 µM | 16.5 µM | – | – | 38.4 µM |

— PubChem BioAssay (NCI)
